Experimental data taken from PMC11855827, “High-Throughput Screening of Five Compound Libraries for Anthelmintic Activity and Toxicity Leads to the Discovery of Two Flavonoid Compounds” (International Journal of Molecular Sciences, 2025).
Values joined by “and” are separate entries in the source; they are usually repeats but may differ in a detail not shown here. Equal entries are not always repeated. Structures can show the parent of a compound that is named as a salt. Where two headings read alike, the source gives them in different places.

Assays:
C. elegans [1] = assay: microbe, parasite or virus in culture; settings: Caenorhabditis elegans
C. elegans [2] = tested on: C. elegans
[3] = 24 h, read-out: Percentage of motility inhibition 24 h, Table S2, C. elegans SS assay, 110 μM, 24 h, averages of 4 data points
[4] = Table S2, C. elegans SS assay, 110 μM, 24 h, averages of 4 data points
[5] = 0 h, read-out: Percentage of motility inhibition 0 h, Table S2, C. elegans SS assay, 110 μM, 0 h, averages of 4 data points
[6] = Table S2, C. elegans SS assay, 110 μM, averages of 4 data points
[7] = 0 h, read-out: Percentage of motility inhibition 0 h
[8] = 24 h, read-out: Percentage of motility inhibition 24 h

SMILES: O=c1c(-c2ccc(O)cc2)coc2cc(O)ccc12 [Daidzein]
- inhibition at 110 µM (C. elegans [1]; [3]): 14%
- Percentage of motility inhibition 24 h (C. elegans [2]; [4]): 10%

SMILES: CC1(C)CCC[C@](C)([C@H]2CC[C@]3(C)[C@@H]2[C@H](O)C[C@@H]2[C@@]4(C)CC[C@H](O)C(C)(C)[C@@H]4[C@@H](O)C[C@]23C)O1 [Panaxatriol]
- inhibition at 110 µM (C. elegans [1]; [3]): 15%
- Percentage of motility inhibition 24 h (C. elegans [2]; [4]): 11%

SMILES: CCn1cc(C(=O)O)c(=O)c2ccc(C)nc21 [Nalidixic acid]
- inhibition at 110 µM (C. elegans [1]; [5]): 27%
- inhibition at 110 µM (C. elegans [1]; [3]): 18%
- Percentage of motility inhibition 0 h (C. elegans [2]; [6]): 22%
- Percentage of motility inhibition 24 h (C. elegans [2]; [4]): 26%

SMILES: COC(=O)C[C@](O)(CCCC(C)(C)O)C(=O)O[C@@H]1C(OC)=C[C@]23CCCN2CCc2cc4c(cc2[C@H]13)OCO4 [Homoharringtonine]
- inhibition at 110 µM (C. elegans [1]; [5]): 20%
- Percentage of motility inhibition 0 h (C. elegans [2]; [6]): 12%
- Percentage of motility inhibition 24 h (C. elegans [2]; [4]): 2% and 0%

SMILES: CC1(C)[C@@H](O)CC[C@]2(C)[C@H]3C(=O)C=C4[C@H]5C[C@@](C)(C(=O)O)CC[C@]5(C)CC[C@@]4(C)[C@]3(C)CC[C@@H]12 [18α-Glycyrrhetinic acid]
- inhibition at 110 µM (C. elegans [1]; [3]): 18%
- Percentage of motility inhibition 24 h (C. elegans [2]; [4]): 10%

SMILES: CC[C@H]1OC(=O)[C@H](C)[C@@H](O[C@H]2C[C@@](C)(OC)[C@@H](O)[C@H](C)O2)[C@H](C)[C@@H](O[C@@H]2O[C@H](C)C[C@H](N(C)C)[C@H]2O)[C@](C)(O)C[C@@H](C)C(=O)[C@H](C)[C@@H](O)[C@]1(C)O [Erythromycin]
- inhibition at 110 µM (C. elegans [1]; [3]): 5%
- Percentage of motility inhibition 0 h (C. elegans [2]; [6]): 10% and 0%

SMILES: O=C(O)[C@H]1O[C@@H](Oc2cc3oc(-c4ccccc4)cc(=O)c3c(O)c2O)[C@H](O)[C@@H](O)[C@@H]1O [Baicalin]
- inhibition at 110 µM (C. elegans [1]; [3]): 15%
- Percentage of motility inhibition 24 h (C. elegans [2]; 24 h, 110 µM): 24%

SMILES: Nc1ncnc2c1ncn2[C@@H]1O[C@H](CO)[C@@H](O)[C@@H]1O [Vidarabine]
- inhibition at 110 µM (C. elegans [1]; [3]): 0%
- Percentage of motility inhibition 0 h (C. elegans [2]; [6]): 4%

SMILES: COC(=O)[C@@H]1[C@H]2C[C@H]3c4[nH]c5ccccc5c4CCN3C[C@@H]2CC[C@@H]1O [Yohimbine]
- inhibition at 110 µM (C. elegans [1]; [5]): 7%
- Percentage of motility inhibition 0 h (C. elegans [2]; 110 μM): 8%

SMILES: C[C@H]1[C@H](OC(=O)CCC(=O)O)O[C@@H]2O[C@@]3(C)CC[C@H]4[C@H](C)CC[C@@H]1[C@@]24OO3 [Artesunate]
- inhibition at 110 µM (C. elegans [1]; [5]): 12%
- inhibition at 110 µM (C. elegans [1]; [3]): 30%
- Percentage of motility inhibition 0 h (C. elegans [2]; [6]): 21%
- Percentage of motility inhibition 24 h (C. elegans [2]; [4]): 15%

SMILES: CC1(C)CC[C@]2(C(=O)O)CC[C@]3(C)C(=CC[C@@H]4[C@@]5(C)CC[C@H](O)C(C)(C)[C@@H]5CC[C@]43C)[C@@H]2C1 [Oleanolic Acid]
- inhibition at 110 µM (C. elegans [1]; [7]): 4%
- Percentage of motility inhibition 24 h (C. elegans [2]; 110 µM): 1% and 0%

SMILES: C[C@H]1C(=O)O[C@@H]2CCN3CC=C(COC(=O)[C@](C)(O)[C@]1(C)O)[C@H]23 [Monocrotaline]
- inhibition at 110 µM (C. elegans [1]; [3]): 12%
- Percentage of motility inhibition 0 h (C. elegans [2]; [6]): 2%
- Percentage of motility inhibition 24 h (C. elegans [2]; [4]): 15%

SMILES: COC(=O)[C@]1(C)CC[C@]2(C)CC[C@]3(C)C4=CC=C5C(=CC(=O)C(O)=C5C)[C@]4(C)CC[C@@]3(C)[C@@H]2C1 [Pristimerin]
- inhibition at 110 µM (C. elegans [1]; [5]): 29%
- inhibition at 110 µM (C. elegans [1]; [3]): 23%
- Percentage of motility inhibition 0 h (C. elegans [2]; [6]): 15%
- Percentage of motility inhibition 24 h (C. elegans [2]; [4]): 24%

SMILES: CC(=O)OCC1=C[C@H](O)[C@@H]2C(C(=O)O)=CO[C@@H](O[C@@H]3O[C@H](CO)[C@@H](O)[C@H](O)[C@H]3O)[C@H]12 [Asperulosidic Acid]
- inhibition at 110 µM (C. elegans [1]; [5]): 2%
- inhibition at 110 µM (C. elegans [1]; [3]): 0%

SMILES: COc1cc(C2Oc3cc([C@H]4Oc5cc(O)cc(O)c5C(=O)[C@@H]4O)ccc3OC2CO)ccc1O (stereo partly drawn) [Silibinin]
- inhibition at 110 µM (C. elegans [1]; [5]): 0%
- inhibition at 110 µM (C. elegans [1]; [3]): 0%

SMILES: O=C(O)C1=CO[C@@H](O[C@@H]2O[C@H](CO)[C@@H](O)[C@H](O)[C@H]2O)[C@@H]2C(CO)=CC[C@H]12 [Geniposidic acid]
- inhibition at 110 µM (C. elegans [1]; [5]): 0%
- inhibition at 110 µM (C. elegans [1]; [3]): 3%

SMILES: CO[C@H]1/C=C/O[C@@]2(C)Oc3c(C)c(O)c4c(O)c(c5c(nc6cc(C)ccn65)c4c3C2=O)NC(=O)/C(C)=C\C=C\[C@H](C)[C@H](O)[C@@H](C)[C@@H](O)[C@@H](C)[C@H](OC(C)=O)[C@@H]1C [Rifaximin]
- inhibition at 110 µM (C. elegans [1]; [5]): 7%
- inhibition at 110 µM (C. elegans [1]; [3]): 1%

SMILES: COc1ccc(C[C@@H]2c3cc(Oc4cc(C[C@@H]5c6cc(OC)c(OC)cc6CCN5C)ccc4O)c(OC)cc3CCN2C)cc1 [Neferine]
- inhibition at 110 µM (C. elegans [1]; [7]): 25%
- inhibition at 110 µM (C. elegans [1]; [8]): 9%

SMILES: C[C@H]1O[C@@H](O[C@H]2[C@@H](O)C[C@H](O[C@H]3[C@@H](O)C[C@H](O[C@H]4CC[C@@]5(C)[C@H](CC[C@@H]6[C@@H]5CC[C@]5(C)[C@@H](C7=CC(=O)OC7)CC[C@]65O)C4)O[C@@H]3C)O[C@@H]2C)C[C@H](O)[C@@H]1O [Digitoxin]
- inhibition at 110 µM (C. elegans [1]; [5]): 0%
- inhibition at 110 µM (C. elegans [1]; [3]): 3%

SMILES: C=C(C)[C@@H]1CC[C@]2(COC(C)=O)CC[C@]3(C)[C@H](CC[C@@H]4[C@@]5(C)CC[C@H](OC(C)=O)C(C)(C)[C@@H]5CC[C@]43C)[C@@H]12 [Betulin diacetate]
- inhibition at 110 µM (C. elegans [1]; [5]): 11%
- inhibition at 110 µM (C. elegans [1]; [3]): 0%

SMILES: COc1ccc(-c2cc(=O)c3c(OC)c(OC)c(OC)c(OC)c3o2)cc1OC [Nobiletin]
- inhibition at 110 µM (C. elegans [1]; [5]): 0%
- inhibition at 110 µM (C. elegans [1]; [3]): 0%

SMILES: C/C=C1/C[C@@H](C)[C@@](C)(O)C(=O)OCC2=CC[N+]3([O-])CC[C@@H](OC1=O)[C@@H]23 (stereo partly drawn) [Senecionine N‐oxide]
- inhibition at 110 µM (C. elegans [1]; [5]): 39%
- inhibition at 110 µM (C. elegans [1]; [3]): 43%

SMILES: C/C=C(\C)C(=O)O[C@H]1[C@H](OC(C)=O)[C@]2(CO)[C@H](O)C[C@]3(C)C(=CC[C@@H]4[C@@]5(C)CC[C@H](O[C@@H]6O[C@H](C(=O)O)[C@@H](O[C@@H]7O[C@H](CO)[C@@H](O)[C@H](O)[C@H]7O)[C@H](O)[C@H]6O[C@@H]6O[C@H](CO)[C@@H](O)[C@H](O)[C@H]6O)[C@](C)(CO)[C@@H]5CC[C@]43C)[C@@H]2CC1(C)C [Escin IA]
- inhibition at 110 µM (C. elegans [1]; [5]): 0%
- inhibition at 110 µM (C. elegans [1]; [3]): 0%

SMILES: O=c1cc[nH]c(=O)[nH]1 [Uracil]
- inhibition at 110 µM (C. elegans [1]; [5]): 0%
- inhibition at 110 µM (C. elegans [1]; [3]): 0%

SMILES: CCN(CCO)CCCC(C)Nc1ccnc2cc(Cl)ccc12 (stereo not drawn) [Hydroxychloroquine sulfate]
- inhibition at 110 µM (C. elegans [1]; [5]): 19%
- inhibition at 110 µM (C. elegans [1]; [3]): 9%

SMILES: O=c1c(O)c(-c2ccc(O)cc2)oc2cc(O)cc(O)c12 [Kaempferol]
- inhibition at 110 µM (C. elegans [1]; [5]): 0%
- inhibition at 110 µM (C. elegans [1]; [3]): 25%

SMILES: CCOC(=O)c1ccc(O)cc1 [Ethylparaben]
- inhibition at 110 µM (C. elegans [1]; [5]): 32%
- inhibition at 110 µM (C. elegans [1]; [3]): 8%

SMILES: O=c1c(O)c(-c2ccc(O)c(O)c2)oc2cc(O)c(O)c(O)c12 [Quercetagetin]
- inhibition at 110 µM (C. elegans [1]; [7]): 15%
- inhibition at 110 µM (C. elegans [1]; [8]): 10%

SMILES: N#C/C(=C1/SC[C@@H](c2ccc(Cl)cc2Cl)S1)n1ccnc1 [Luliconazole]
- inhibition at 110 µM (C. elegans [1]; [5]): 3%
- inhibition at 110 µM (C. elegans [1]; [3]): 7%

SMILES: CN(C/C=C/C#CC(C)(C)C)Cc1cccc2ccccc12 [Terbinafine]
- inhibition at 110 µM (C. elegans [1]; [5]): 31%
- inhibition at 110 µM (C. elegans [1]; [3]): 0%

SMILES: COc1cc2c(cc1O)C[C@H]1c3c(cc(O)c(OC)c3-2)CCN1C [Boldine]
- inhibition at 110 µM (C. elegans [1]; [5]): 0%
- inhibition at 110 µM (C. elegans [1]; [3]): 0%

SMILES: O=C1C=C2C=C[C@@H]3C[C@@]2(O1)[C@H]1CCCCN31 [(‐)‐Securinine]
- inhibition at 110 µM (C. elegans [1]; [5]): 0%
- inhibition at 110 µM (C. elegans [1]; [3]): 12%

SMILES: C[C@H]1CO[C@@H]2Cn3cc(C(=O)NCc4ccc(F)cc4F)c(=O)c(O)c3C(=O)N12 [Cabotegravir]
- inhibition at 110 µM (C. elegans [1]; [5]): 19%
- inhibition at 110 µM (C. elegans [1]; [3]): 7%

SMILES: O=C1Cc2ccccc2N1 [Oxindole]
- inhibition at 110 µM (C. elegans [1]; [5]): 14%
- inhibition at 110 µM (C. elegans [1]; [3]): 7%

SMILES: O=C(/C=C/c1ccc(O)cc1)c1ccc(O)cc1O [Isoliquiritigenin]
- inhibition at 110 µM (C. elegans [1]; [5]): 16%
- inhibition at 110 µM (C. elegans [1]; [3]): 4%

SMILES: COc1ccc2cc1Oc1ccc(cc1)C[C@H]1c3cc(c(OC)cc3CCN1C)Oc1c(O)c(OC)cc3c1[C@H](C2)N(C)CC3 [Fangchinoline]
- inhibition at 110 µM (C. elegans [1]; [5]): 0%
- inhibition at 110 µM (C. elegans [1]; [3]): 0%

SMILES: Cc1c(C(N)=O)cc([N+](=O)[O-])cc1[N+](=O)[O-] [Dinitolmide]
- inhibition at 110 µM (C. elegans [1]; [5]): 16%
- inhibition at 110 µM (C. elegans [1]; [3]): 14%

SMILES: CC1(C)CC[C@]2(C(=O)O)CC[C@]3(C)C(=CC[C@@H]4[C@@]5(C)CC[C@H](O)[C@@](C)(CO)[C@@H]5CC[C@]43C)[C@@H]2C1 [Hederagenin]
- inhibition at 110 µM (C. elegans [1]; [7]): 30%
- inhibition at 110 µM (C. elegans [1]; [8]): 21%

SMILES: Nc1ccn([C@@H]2O[C@H](CO)[C@@H](O)[C@H]2O)c(=O)n1 [Cytidine]
- inhibition at 110 µM (C. elegans [1]; [5]): 12%
- inhibition at 110 µM (C. elegans [1]; [3]): 5%

SMILES: COc1c(O)cc2oc(-c3ccccc3)cc(=O)c2c1O [Oroxylin A]
- inhibition at 110 µM (C. elegans [1]; [5]): 39%
- inhibition at 110 µM (C. elegans [1]; [3]): 12%

SMILES: C#C[C@]1(O)CC[C@H]2[C@@H]3CCc4cc(O)ccc4[C@H]3CC[C@@]21C [Ethinylestradiol]
- inhibition at 110 µM (C. elegans [1]; [5]): 33%
- inhibition at 110 µM (C. elegans [1]; [3]): 15%
